SMILES strings stand for the structures. Where two headings read alike, the source gives them in different places.

The experiment has as its target STAT3 (Homo sapiens, UniProt P40763). In words: STAT3 HiBiT degradation assay in transfected A549 cells. It is filed as cell-based. Also on record: expressed in transfected cells; host or cells: A549. An outline of the steps: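 Degradation read as HiBiT-tagged STAT3 luminescence (Nano-Glo lytic reagent, 10 min, room temperature) following 24 h compound treatment of transfected A549 cells at 3-fold, 10 points. Percent remaining signal computed against controls and fitted with a four-parameter logistic; DC50 reported as letter bins (A <0.01 to D >1.0 µM).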
A general note: HiBiT is a short tag that completes a luciferase, so light tracks the accessible tagged protein.

[1] abbreviates: A549, 24 h; read-out: STAT3 HiBiT A549 degradation 24 h: Average external-Abs DC50.

Sequence of STAT3 (P40763 whole entry): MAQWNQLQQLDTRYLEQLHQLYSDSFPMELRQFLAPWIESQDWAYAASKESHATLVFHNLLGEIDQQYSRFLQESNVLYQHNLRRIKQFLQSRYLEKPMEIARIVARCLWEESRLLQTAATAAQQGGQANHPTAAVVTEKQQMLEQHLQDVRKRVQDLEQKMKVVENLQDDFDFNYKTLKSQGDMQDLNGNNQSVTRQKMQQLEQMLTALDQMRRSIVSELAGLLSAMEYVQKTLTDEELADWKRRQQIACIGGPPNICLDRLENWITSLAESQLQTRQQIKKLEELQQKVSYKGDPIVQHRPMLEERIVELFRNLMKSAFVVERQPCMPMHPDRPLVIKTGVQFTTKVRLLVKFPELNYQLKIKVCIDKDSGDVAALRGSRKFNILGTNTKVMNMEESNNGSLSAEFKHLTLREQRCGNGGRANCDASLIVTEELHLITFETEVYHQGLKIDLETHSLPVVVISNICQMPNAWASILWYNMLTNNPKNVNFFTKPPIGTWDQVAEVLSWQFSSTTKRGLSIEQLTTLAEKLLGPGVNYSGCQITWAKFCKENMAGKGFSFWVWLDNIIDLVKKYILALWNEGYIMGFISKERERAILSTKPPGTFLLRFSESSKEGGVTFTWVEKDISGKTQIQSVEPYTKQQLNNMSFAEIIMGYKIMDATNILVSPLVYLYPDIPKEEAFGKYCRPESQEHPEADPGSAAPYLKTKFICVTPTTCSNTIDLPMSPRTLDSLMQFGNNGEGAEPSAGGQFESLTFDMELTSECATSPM

The term DC50 denotes the concentration giving 50% degradation. `Cc1ncsc1-c1ccc(CNC(=O)[C@@H]2C[C@@H](O)CN2C(=O)[C@@H](NC(=O)CCCCCc2ccc(OC[C@H](CCC(N)=O)NC(=O)[C@@H]3Cc4cccc5c4N3C(=O)[C@@H](NC(=O)c3cc4cc(C(=O)P(=O)(O)O)ccc4[nH]3)CC5)cc2)C(C)(C)C)cc1` [Compound I-152, 2-[[(2S,11S)-2-[[(2S)-4-carbamoyl-1-[4-(5-[[(2S)-1-[(2S,4R)-4-hydroxy-2-([[4-(4-methyl-1,3-thiazol-5-yl)phenyl]methyl]carbamoyl)pyrrolidin-1-yl]-3,3-dimethyl-1-oxobutan-2-yl]carbamoyl]pentyl)phenoxy]butan-2-yl]carbamoyl]-12-oxo-1-azatricyclo [6.4.1.0^[4,13]]trideca-4(13),5,7-trien-11-yl]carbamoyl]-1H-indole-5-carbonylphosphonic acid]: the DC50 under setting [1] is > 1000 nM.
On the same count and under the same terms, next, `Cn1c(=O)n(C2CCC(=O)NC2=O)c2ccc(N3CCC(CCCC(=O)N4CC[C@H]5CC[C@@H](C(=O)N[C@@H](CCC(N)=O)C(=O)NC(c6ccccc6)c6ccccc6)N5C(=O)[C@@H](NC(=O)c5cc6cc(C(=O)P(=O)(O)O)ccc6[nH]5)C4)CC3)cc21` (stereo partly drawn) [Compound I-128, 2-[[(5S,8S,10aR)-8-[[(1S)-3-carbamoyl-1-(diphenylmethylcarbamoyl)propyl]carbamoyl]-3-(4-[1-[1-(2,6-dioxopiperidin-3-yl)-3-methyl-2-oxo-1,3-benzodiazol-5-yl]piperidin-4-yl]butanoyl)-6-oxo-octahydropyrrolo[1,2-a][1,5]diazocin-5-yl]carbamoyl]-1H-indole-5-carbonylphosphonic acid]: 100 to 1000 nM.
On the same count and under the same terms, with `CC(=O)N1CC[C@H]2CC[C@@H](C(=O)N[C@@H](CCC(N)=O)C(=O)NCCCCCCCCC(=O)N[C@H](C(=O)N3C[C@H](O)C[C@H]3C(=O)NCc3ccc(-c4scnc4C)cc3)C(C)(C)C)N2C(=O)[C@@H](NC(=O)c2cc3cc(C(=O)P(=O)(O)O)ccc3[nH]2)C1` [Compound I-173] the figure was > 1000 nM.
Take `Cc1ncsc1-c1ccc(CNC(=O)[C@@H]2C[C@@H](O)CN2C(=O)[C@@H](NC(=O)CCCCCc2cccc(O[C@H](C)[C@H](CCC(N)=O)NC(=O)[C@@H]3Cc4cccc5c4N3C(=O)[C@@H](NC(=O)c3cc4cc(C(=O)P(=O)(O)O)ccc4[nH]3)CC5)c2)C(C)(C)C)cc1` [Compound I-210, 2-[[(2S,11S)-2-[[(3S,4R)-1-carbamoyl-4-[3-(5-[[(2S)-1-[(2S,4R)-4-hydroxy-2-([[4-(4-methyl-1,3-thiazol-5-yl)phenyl]methyl]carbamoyl)pyrrolidin-1-yl]-3,3-dimethyl-1-oxobutan-2-yl]carbamoyl]pentyl)phenoxy]pentan-3-yl]carbamoyl]-12-oxo-1-azatricyclo[6.4.1.0^[4,13]]trideca-4(13),5,7-trien-11-yl]carbamoyl]-1H-indole-5-carbonylphosphonic acid]: the 50% degradation concentration (DC50) under setting [1] was > 1000 nM.
`C[C@@H](OCc1ccc(Br)cc1)[C@H](CCC(N)=O)NC(=O)[C@@H]1CC[C@@H]2CCN(C(=O)CCCCCCc3ccc4c(c3)n(C)c(=O)n4C3CCC(=O)NC3=O)C[C@H](NC(=O)c3cc4cc(C(=O)P(=O)(O)O)ccc4[nH]3)C(=O)N21` (stereo partly drawn) [Compound I-183, 2-[[(5S,8S,10aR)-8-[[(3S,4R)-4-[(4-bromophenyl)methoxy]-1-carbamoylpentan-3-yl]carbamoyl]-3-[7-[1-(2,6-dioxopiperidin-3-yl)-3-methyl-2-oxo-1,3-benzodiazol-5-yl]heptanoyl]-6-oxo-octahydropyrrolo[1,2-a][1,5]diazocin-5-yl]carbamoyl]-1H-indole-5-carbonylphosphonic acid]: the DC50 (read-out: STAT3 HiBiT A549 degradation 24 h: Average external-Abs DC50; A549, 24 h) is 100 to 1000 nM.
For `Cc1ncsc1-c1ccc([C@H](C)NC(=O)[C@@H]2C[C@@H](O)CN2C(=O)[C@@H](NC(=O)CCCCCc2ccc(Cl)c(OC[C@H](CCC(N)=O)NC(=O)[C@@H]3Cc4cccc5c4N3C(=O)[C@@H](NC(=O)c3cc4cc(C(=O)P(=O)(O)O)ccc4[nH]3)CC5)c2)C(C)(C)C)cc1` [Compound I-200], under setting [1], the DC50 is > 1000 nM.
The same measure, in the same setting: with `Cc1ncsc1-c1ccc(CNC(=O)[C@@H]2C[C@@H](O)CN2C(=O)[C@@H](NC(=O)CCCCCc2ccc(CNC(=O)[C@H](CCC(N)=O)NC(=O)[C@@H]3Cc4cccc5c4N3C(=O)[C@@H](NC(=O)c3cc4cc(C(=O)P(=O)(O)O)ccc4[nH]3)CC5)cc2)C(C)(C)C)cc1` [Compound I-140] the figure was > 1000 nM; with `Cc1ncsc1-c1ccc([C@H](C)NC(=O)[C@@H]2C[C@@H](O)CN2C(=O)[C@@H](NC(=O)CCc2cccc(OC[C@H](CCC(N)=O)NC(=O)[C@@H]3Cc4cccc5c4N3C[C@@H](CC(=O)C3Cc4cc(C(=O)P(=O)(O)O)ccc4N3)CC5)c2)C(C)(C)C)cc1` (stereo partly drawn) [Compound I-260, diammonium 2-[[(2S,11S)-2-[[(2S)-4-carbamoyl-1-[3-(2-[[(2S)-1-[(2S,4R)-4-hydroxy-2-[[(1S)-1-[4-(4-methyl-1,3-thiazol-5-yl)phenyl]ethyl]carbamoyl]pyrrolidin-1-yl]-3,3-dimethyl-1-oxobutan-2-yl]carbamoyl]ethyl)phenoxy]butan-2-yl]carbamoyl]-12-oxo-1-azatricyclo[6.4.1.0^[4,13]]trideca-4(13),5,7-trien-11-yl]carbamoyl]-1H-indole-5-carbonylphosphonate], > 1000 nM; with `Cc1ncsc1-c1ccc(CNC(=O)[C@@H]2C[C@@H](O)CN2C(=O)[C@@H](NC(=O)CCCCCCCOC[C@H](CCC(N)=O)NC(=O)[C@@H]2Cc3cccc4c3N2C(=O)[C@@H](NC(=O)c2cc3cc(C(=O)P(=O)(O)O)ccc3[nH]2)CC4)C(C)(C)C)cc1` [Compound I-155], > 1000 nM.
Still for that read-out and setting: next, `Cc1ncsc1-c1ccc([C@H](C)NC(=O)[C@@H]2C[C@@H](O)CN2C(=O)[C@@H](NC(=O)CCCCCc2cc(Cl)cc(NC(=O)[C@H](CCC(N)=O)NC(=O)[C@@H]3Cc4cccc5c4N3C(=O)[C@@H](NC(=O)c3cc4cc(C(=O)P(=O)(O)O)ccc4[nH]3)CC5)c2)C(C)(C)C)cc1` [Compound I-257, 2-[[(2S,11S)-2-[[(1S)-3-carbamoyl-1-[[3-chloro-5-(5[[(2S)-1-[(2S,4R)-4-hydroxy-2-[[(1S)-1-[4-(4-methyl-1,3-thiazol-5-yl)phenyl]ethyl]carbamoyl]pyrrolidin-1-yl]-3,3-dimethyl-1-oxobutan-2-yl]carbamoyl]pentyl)phenyl]carbamoyl]propyl]carbamoyl]-12-oxo-1-azatricyclo[6.4.1.0^[4,13]]trideca-4(13),5,7-trien-11-yl]carbamoyl]-1H-indole-5-carbonylphosphonic acid]: 10 to 100 nM.
The same measure, in the same setting: with `Cn1c(=O)n(C2CCC(=O)NC2=O)c2cccc(CCCCCCCCC(=O)N3CC[C@H]4CC[C@@H](C(=O)N[C@@H](CCC(N)=O)C(=O)NC(c5ccccc5)c5ccccc5)N4C(=O)[C@@H](NC(=O)c4cc5cc(C(=O)P(=O)(O)O)ccc5[nH]4)C3)c21` (stereo partly drawn) [Compound I-125, 2-[[(5S,8S,10aR)-8-[[(1S)-3-carbamoyl-1-(diphenylmethylcarbamoyl)propyl]carbamoyl]-3-[9-[1-(2,6-dioxopiperidin-3-yl)-3-methyl-2-oxo-1,3-benzodiazol-4-yl]nonanoyl]-6-oxo-octahydropyrrolo[1,2-a][1,5]diazocin-5-yl]carbamoyl]-1H-indole-5-carbonylphosphonic acid] the figure was 100 to 1000 nM; with `Cc1ncsc1-c1ccc([C@H](C)NC(=O)[C@@H]2C[C@@H](O)CN2C(=O)[C@@H](NC(=O)CCCCCc2c(F)ccc(OC[C@H](CCC(N)=O)NC(=O)[C@@H]3Cc4cccc5c4N3C(=O)[C@@H](NC(=O)c3cc4cc(C(=O)P(=O)(O)O)ccc4[nH]3)CC5)c2F)C(C)(C)C)cc1` [Compound I-252], < 10 nM.

The values are drawn from patent US12077555B2, “STAT degraders and uses thereof” (Kymera Therapeutics, Inc., priority 2019, dated 2024).
